One assay has as its target T1, PDE4B2 (Homo sapiens, UniProt Q07343).
T1 construct: the full length human PDE4B2 short isoform; made in house
Nature of the assay: PDE assay, [3H]cAMP hydrolysis by HEK-PDE4B2 cell lysate cytosol fraction (short form). In kind it is biochemical. To be noted: mean % increase in counts over basal activity. As for the experimental part: HEK 293 cells were transfected with pDEST™ PDE4 expression vectors using Lipofectamine LTX/Plus reagent (Invitrogen) as outlined by the manufacturer and clonal isolates expanded to obtain cell lines that stably expressed the full-length human PDE4D5, PDE4B1 and PDE4A4 long isoforms and the full length human PDE4B2 short isoform. These were called the HEK-PDE4D5, HEK-PDE4B1, HEK-PDE4A4 and HEK-PDE4B2 cell lines, respectively.
HEK-PDE4D5 cells were seeded out in 100 mm plates and incubated at 37° C. in an atmosphere of 5% CO2, 95% air. Cell lysates were prepared using KHEM buffer [50 mM KCl, 10 mM EGTA, 50 mM HEPES (pH 7.2), 1.92 mM MgCl2].
To prepare the cell lysates, the 100 mm plates containing the cells were placed on ice and washed with ice-cold PBS (phosphate buffered saline, pH 7.4). KHEM buffer (500 μl) was added to the cells. Cells were then scraped off the plate and triturated using a needle (BD Microlance™ 0.8, 40 mm). The lysed cells were then centrifuged at 2000 rpm for 10 minutes to remove cell debris and the supernatant (cell lysate containing recombinant PDE4D5) was transferred to a fresh tube and kept on ice.
The cell lysate containing recombinant PDE4D5 was transferred into a centrifuge tube and placed into an ultracentrifuge (BECKMAN COULTER) and spun at high speed (100,000 g) for 30 minutes at 4° C. The cytosol fraction was then collected and its protein amount determined using a BCA protein assay.
PDE assays were performed in thin walled V-bottomed 96-well plates. The assays were performed at a final concentration of 10 mM Tris/5 mM MgCl2 plus PDE4D5 cell lysate cytosol fraction, containing over-expressed PDE4D5, with and without test compound. The lysate/compound mix were incubated together for 15 min at room temperature on an orbital shaker prior to addition of [^3H] cAMP (final concentration 1 μM [^3H] cAMP; Perkin Elmer) to a final volume of 50 μl per reaction. The reactions were then incubated for 10 minutes at 30° C., terminated by heating for 2 min at 95° C. and allowed to cool. Snake venom (12.5 μl of 1 mg/ml; Crotalus atrox, Sigma) was then added and the plates were agitated and incubated for a further 15 minutes at 30° C. Dowex ion exchange resin (Sigma, chloride form, 200-400 mesh; 200 μl; prepared as a 1:1 Dowex: water stock, thoroughly re-suspended and diluted 2:1 with ethanol) was then added to each well and the plates incubated for 15 min at room temperature on an orbital shaker ensuring sufficient agitation for resin suspension (550 RPM). The reaction mixture was then transferred to a 96 well filter plate (Millipore; […] pore size) and filtered into a receiving 96-well plate to remove the dowex suspension. 30 μL of the filtered solution was then transferred to the wells of an Opti-plate (Perkin Elmer) 96 well assay plate and 120 μl of Microscint 40 scintillation fluid was added. The plate was then placed on an orbital shaker for 10 min at high speed (900 RPM) to mix the sample with scintillation fluid prior to quantitation using a plate based scintillation counter (Top-Count).
The % increase in counts in the presence of test compound at a particular concentration indicates the % increase in enzyme activity at that concentration.

Another assay deals with T2, PDE4D5 (Homo sapiens, UniProt Q08499).
T2 construct: stably expressed the full-length human PDE4D5, PDE4B1 and PDE4A4 long isoforms; made in house
Kind of assay: PDE assay, [3H]cAMP hydrolysis by HEK-PDE4D5 cell lysate cytosol fraction. Type of assay: biochemical. The conditions noted are these: 30 μM; mean % increase in counts over basal activity.

The test system of assay [1] is MDCK cells. Nature of the assay: Reduction of intracellular cAMP levels in forskolin stimulated MDCK cells. To be noted: compound 40 min prior to forskolin (1 μM) for 20 min. Type of assay: cell-based, canine. As for the experimental part:
MDCK cells were seeded at 100,000 cells per well, and left to adhere overnight. The cells were then treated with the test compound for 40 minutes, prior to stimulation with forskolin (1 μM, Sigma) for 20 minutes. Media was aspirated, and hydrochloric acid (0.1 M) was added to lyse the cells. The cAMP assay (Enzo Life Sciences) was performed according to the manufacturer's instructions.
(cAMP levels reflect the balance of adenylyl cyclase and phosphodiesterase activity.)

Assay [2] has as its system MDCK cells. Kind of assay: Inhibition of in vitro cyst formation in 3D culture of MDCK cells. In kind it is cell-based, canine. To be noted: 300 nM prostaglandin E2, 10 days; % Cyst Volume compared to vehicle. From the text: In this study, the well-established three-dimensional (3D) MDCK cell model is used to investigate the effects of PDE4 long form activators on the formation of kidney cysts and evaluate their potential in the treatment of polycystic kidney diseases. 3D cysts are generated based on the method of Mao et al. (Mao, Z., Streets, A. J., Ong, A. C. M. Am. J. Physiol. Renal Physiol. 300(6): F1375-F1384, 2011), with some modifications.
Type 1 collagen (Invitrogen) is first prepared on ice by neutralising an acidic stock solution (3 mg/ml) with 17 mM NaOH and diluting it to 1 mg/ml with DMEM, supplemented with 2% (v/v) FBS, 2 mM L-glutamine, 1,000 U penicillin and 1,000 μg streptomycin (DMEM-2% FBS). […]
Phase-contrast images are obtained on the Motic microscope (×4 magnification). 8 images are taken per condition and the cyst diameter measured (up to 150 cyst measurements per well). Cyst spheroid volume is calculated using the formula 4/3πr^3 where r is the radius of the spheroid. A mean cyst volume is then calculated per well. The mean cyst volume and standard deviation between the duplicate wells is then calculated and expressed as a % Cyst Volume compared to the vehicle only (DMSO+300 nM PGE2) control wells. […]

Molecules are shown by their SMILES.

T1 sequence (Q07343 1-564 isoform Q07343-2): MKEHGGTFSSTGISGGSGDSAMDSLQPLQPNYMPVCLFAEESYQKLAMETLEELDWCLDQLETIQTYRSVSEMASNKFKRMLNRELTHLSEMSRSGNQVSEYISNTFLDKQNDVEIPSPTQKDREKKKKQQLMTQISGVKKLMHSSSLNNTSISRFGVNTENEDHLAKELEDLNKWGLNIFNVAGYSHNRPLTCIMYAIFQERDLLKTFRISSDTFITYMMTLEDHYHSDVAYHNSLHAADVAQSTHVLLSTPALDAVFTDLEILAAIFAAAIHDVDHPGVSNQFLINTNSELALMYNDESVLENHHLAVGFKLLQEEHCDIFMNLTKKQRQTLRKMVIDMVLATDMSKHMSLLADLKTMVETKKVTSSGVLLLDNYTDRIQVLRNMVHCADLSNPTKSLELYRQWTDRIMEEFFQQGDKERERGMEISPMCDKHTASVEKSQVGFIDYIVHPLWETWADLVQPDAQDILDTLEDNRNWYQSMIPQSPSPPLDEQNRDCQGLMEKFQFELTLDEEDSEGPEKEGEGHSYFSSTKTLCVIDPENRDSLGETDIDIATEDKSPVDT
T2 sequence (Q08499 1-745 isoform Q08499-6): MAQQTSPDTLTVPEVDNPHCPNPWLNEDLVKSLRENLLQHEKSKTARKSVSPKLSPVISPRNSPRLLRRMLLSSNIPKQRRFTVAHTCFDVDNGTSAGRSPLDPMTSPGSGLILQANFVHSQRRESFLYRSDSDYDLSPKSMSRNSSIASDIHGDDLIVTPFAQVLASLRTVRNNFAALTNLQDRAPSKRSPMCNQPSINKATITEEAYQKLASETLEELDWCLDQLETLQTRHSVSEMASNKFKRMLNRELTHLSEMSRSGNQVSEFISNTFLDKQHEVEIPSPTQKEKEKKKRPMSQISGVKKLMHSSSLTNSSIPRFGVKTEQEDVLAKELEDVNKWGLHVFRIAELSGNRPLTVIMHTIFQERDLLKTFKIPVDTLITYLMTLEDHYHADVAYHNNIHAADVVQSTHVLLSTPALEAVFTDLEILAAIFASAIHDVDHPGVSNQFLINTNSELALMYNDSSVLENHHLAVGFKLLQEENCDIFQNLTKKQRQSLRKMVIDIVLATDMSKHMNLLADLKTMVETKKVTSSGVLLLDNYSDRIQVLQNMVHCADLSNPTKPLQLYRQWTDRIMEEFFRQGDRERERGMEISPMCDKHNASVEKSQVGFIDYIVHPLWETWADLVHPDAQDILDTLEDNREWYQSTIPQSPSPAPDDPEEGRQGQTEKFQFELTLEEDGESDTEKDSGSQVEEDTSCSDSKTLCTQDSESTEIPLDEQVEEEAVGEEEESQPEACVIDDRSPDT

With `CCn1nc(-c2ccc(Cl)c(F)c2)nc1CC(=O)NCc1cc(C)nc(C)c1` [Example 3, 2-[3-(4-Chloro-3-fluorophenyl)-1-ethyl-1H-1,2,4-triazol-5-yl]-N-((2,6-dimethylpyridin-4-yl)methyl)acetamide], the “% increase in PDE4B2 activity at 30 μM” value on PDE4B2 is listed as −10.9%. In addition, on PDE4D5, the activation at 30 µM came out at 73.2%. Also, the “intracellular cAMP levels in MDCK cells (FIG. 2)” value with MDCK cells [1] is on record as “reduction in intracellular cAMP levels”. Moreover, the “cyst formation in 3D culture of MDCK cells (FIG. 3)” value in the assay with MDCK cells [2] was “inhibition of cyst formation”.
